Measured values reported in ChEMBL document CHEMBL2216754, “Discovery of Imidazoquinolines with Toll-Like Receptor 7/8 Independent Cytokine Induction” (ACS Med Chem Lett, 2012).

How the values were obtained:
[1] = Immunomodulatory activity in C57BL/6 mouse BMDC assessed as IL-10 production at 30 uM after 3 days by FACS flow cytometric analysis (reference value: 16.2 +/- 4.7 pg/mL); assay type: functional
[2] = Immunomodulatory activity in C57BL/6 mouse BMDC assessed as IL-12p40 production at 30 uM after 3 days by FACS flow cytometric analysis (reference value: 260.6 +/- 11.9 pg/mL); assay type: functional
[3] = Immunomodulatory activity in C57BL/6 mouse BMDC assessed as TNFalpha production at 30 uM after 3 days by FACS flow cytometric analysis (reference value: 91.3 +/- 34.5 pg/mL); assay type: functional
[4] = target: T1, Toll-like receptor 8 (Homo sapiens, UniProt Q9NR97); test: Agonist activity at human TLR8 transfected in HEK cells assessed as NFkappaB induction after 24 hrs by specific secreted alkaline phosphatase gene assay; assay type: functional, cell-based, HEK293
T1 sequence (Q9NR97 whole entry): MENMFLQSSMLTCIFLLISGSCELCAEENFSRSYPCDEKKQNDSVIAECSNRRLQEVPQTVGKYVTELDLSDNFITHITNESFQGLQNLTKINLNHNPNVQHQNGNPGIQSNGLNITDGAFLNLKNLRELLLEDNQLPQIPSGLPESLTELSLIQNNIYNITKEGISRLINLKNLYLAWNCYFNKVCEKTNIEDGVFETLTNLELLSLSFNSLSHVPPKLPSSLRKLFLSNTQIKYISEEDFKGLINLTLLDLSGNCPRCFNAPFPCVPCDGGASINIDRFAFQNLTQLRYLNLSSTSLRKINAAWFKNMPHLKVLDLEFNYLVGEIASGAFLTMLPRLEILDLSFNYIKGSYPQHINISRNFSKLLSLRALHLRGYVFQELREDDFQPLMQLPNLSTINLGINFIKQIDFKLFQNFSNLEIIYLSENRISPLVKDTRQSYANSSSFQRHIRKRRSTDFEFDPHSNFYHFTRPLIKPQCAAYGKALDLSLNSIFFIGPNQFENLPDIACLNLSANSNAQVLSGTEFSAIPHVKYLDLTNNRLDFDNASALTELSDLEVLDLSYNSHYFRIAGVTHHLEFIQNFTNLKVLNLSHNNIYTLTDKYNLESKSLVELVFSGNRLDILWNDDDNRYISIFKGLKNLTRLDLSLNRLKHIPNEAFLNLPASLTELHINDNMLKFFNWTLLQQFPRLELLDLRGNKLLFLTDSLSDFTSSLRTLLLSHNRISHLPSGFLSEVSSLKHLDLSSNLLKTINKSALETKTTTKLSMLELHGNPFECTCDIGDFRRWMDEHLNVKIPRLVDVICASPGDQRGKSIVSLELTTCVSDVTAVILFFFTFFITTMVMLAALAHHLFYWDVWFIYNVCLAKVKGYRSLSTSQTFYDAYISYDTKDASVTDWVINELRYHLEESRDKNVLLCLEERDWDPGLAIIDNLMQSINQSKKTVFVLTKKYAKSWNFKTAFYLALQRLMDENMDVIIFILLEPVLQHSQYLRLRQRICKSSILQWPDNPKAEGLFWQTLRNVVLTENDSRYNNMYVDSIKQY

[5] = Immunomodulatory activity in C57BL/6 mouse BMDC assessed as IL-1beta production at 30 uM after 3 days by FACS flow cytometric analysis (reference value: 26.2 +/- 3.7 pg/mL); assay type: functional
[6] = target: T2, Toll-like receptor 7 (Homo sapiens, UniProt Q9NYK1); test: Agonist activity at human TLR7 transfected in HEK cells assessed as NFkappaB induction after 24 hrs by specific secreted alkaline phosphatase gene assay; assay type: functional, cell-based, HEK293
T2 sequence (Q9NYK1 whole entry): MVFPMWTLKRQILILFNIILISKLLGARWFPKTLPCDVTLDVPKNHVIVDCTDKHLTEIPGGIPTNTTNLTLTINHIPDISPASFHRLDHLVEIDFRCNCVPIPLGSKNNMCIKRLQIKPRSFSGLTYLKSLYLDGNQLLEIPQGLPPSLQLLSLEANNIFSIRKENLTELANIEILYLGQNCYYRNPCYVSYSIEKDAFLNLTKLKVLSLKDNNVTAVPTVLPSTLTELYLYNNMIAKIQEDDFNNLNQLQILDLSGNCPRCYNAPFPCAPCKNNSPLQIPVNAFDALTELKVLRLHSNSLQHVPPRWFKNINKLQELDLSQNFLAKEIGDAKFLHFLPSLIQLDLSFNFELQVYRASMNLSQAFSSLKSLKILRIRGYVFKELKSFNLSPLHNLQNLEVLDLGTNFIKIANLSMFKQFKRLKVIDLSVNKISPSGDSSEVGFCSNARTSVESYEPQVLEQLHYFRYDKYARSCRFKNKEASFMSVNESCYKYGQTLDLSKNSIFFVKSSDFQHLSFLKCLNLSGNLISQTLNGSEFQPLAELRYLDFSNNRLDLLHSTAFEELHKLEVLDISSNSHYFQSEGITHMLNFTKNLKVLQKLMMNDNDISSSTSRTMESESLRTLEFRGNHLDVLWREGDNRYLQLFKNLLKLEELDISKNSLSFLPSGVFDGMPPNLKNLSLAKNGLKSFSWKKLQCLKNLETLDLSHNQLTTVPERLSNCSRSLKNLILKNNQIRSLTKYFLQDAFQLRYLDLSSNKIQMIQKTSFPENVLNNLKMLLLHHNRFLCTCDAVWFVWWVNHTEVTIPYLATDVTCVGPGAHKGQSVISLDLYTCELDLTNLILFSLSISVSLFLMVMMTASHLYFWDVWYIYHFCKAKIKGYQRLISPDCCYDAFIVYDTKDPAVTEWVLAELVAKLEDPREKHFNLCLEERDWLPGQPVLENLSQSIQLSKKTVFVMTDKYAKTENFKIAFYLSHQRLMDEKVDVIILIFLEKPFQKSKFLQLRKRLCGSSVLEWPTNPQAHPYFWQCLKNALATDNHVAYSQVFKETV

[7] = Immunomodulatory activity in C57BL/6 mouse BMDC assessed as IL-12p40 production at 30 uM after 3 days by FACS flow cytometric analysis relative to imiquimod; assay type: functional
[8] = Immunomodulatory activity in C57BL/6 mouse BMDC assessed as TNFalpha production at 30 uM after 3 days by FACS flow cytometric analysis relative to imiquimod; assay type: functional

Structure (SMILES) | Activity [1] | Activity [2] | Activity [3] | EC50 [4] | Activity [5] | EC50 [6] | fold change (FC) [7] | fold change (FC) [8]
CC(C)Cn1cnc2c(N)nc3ccccc3c21 [IMIQUIMOD] | 33 pg/mL | 889 pg/mL | 593 pg/mL | > 270 µM | 35 pg/mL | 12.1 µM |  | 
COC(=O)c1ccc2c(c1)nc(N)c1ncn(CC(C)(C)O)c12 | 94 pg/mL | 1773 pg/mL | 1451 pg/mL | > 270 µM | 1144 pg/mL | > 270 µM | >2 | >2
CCCCc1nc2c(N)nc3ccccc3c2n1CC(C)(C)O | 181 pg/mL | 864 pg/mL | 1743 pg/mL |  | 73 pg/mL |  |  | 
CC(C)(O)Cn1cnc2c(N)nc3ccccc3c21 | 60 pg/mL | 839 pg/mL | 2041 pg/mL | > 270 µM | 61 pg/mL | 95 µM |  | 
CCOCc1nc2c(N)nc3ccccc3c2n1CC(C)(C)O [RESIQUIMOD] | 72 pg/mL | 1491 pg/mL | 2134 pg/mL |  | 38 pg/mL |  |  | 
CCCCc1nc2c(N)nc3cc(C(=O)OC)ccc3c2n1CC(C)(C)O | 110 pg/mL | 1286 pg/mL | 1353 pg/mL | 41.3 µM | 893 pg/mL | 1.2 µM |  | 
